This is an account of results in PMC3691235, “Discovery of a Novel Dual Fungal CYP51/Human 5-Lipoxygenase Inhibitor: Implications for Anti-Fungal Therapy” (PLoS ONE, 2013).

Test [1] concerns the target T1, C. albicans CYP51 (CaCYP51) (Candida albicans, UniProt P10613).
T1 construct: made in house; host or cells: E. coli
In words: biochemical. The test is classed as binding. As for the experimental part:
(§1) Native cytochrome P450 concentrations were determined by reduced carbon monoxide difference spectra, based on an extinction coefficient of 91 mM^−1 cm^−1 [42], [43]. Binding of azole antifungal agents to 5 µM CaCYP51 and 5 µM HsCYP51 were performed as previously described, [44], using 0.25 and 0.5 mg mL^−1 stock solutions of ketoconazole and ketaminazole in DMSO. Azole antifungal agents were progressively titrated against the CYP51 protein in 0.1 M Tris-HCl (pH 8.1) and 25% (wt/vol) glycerol, with the spectral difference determined after each incremental addition of azole. The dissociation constant (Kd) of the enzyme-azole complex was determined by nonlinear regression (Levenberg-Marquardt algorithm) of ΔA peak-trough against azole concentration using a rearrangement of the Morrison equation [45] and fitted by the computer program ProFit 6.1.12 (QuantumSoft, Zurich, Switzerland).

Test [2] concerns the target T2, HsCYP51 (Homo sapiens, UniProt Q16850).
T2 construct: made in house; host or cells: E. coli
T2 sequence (Q16850 1-509): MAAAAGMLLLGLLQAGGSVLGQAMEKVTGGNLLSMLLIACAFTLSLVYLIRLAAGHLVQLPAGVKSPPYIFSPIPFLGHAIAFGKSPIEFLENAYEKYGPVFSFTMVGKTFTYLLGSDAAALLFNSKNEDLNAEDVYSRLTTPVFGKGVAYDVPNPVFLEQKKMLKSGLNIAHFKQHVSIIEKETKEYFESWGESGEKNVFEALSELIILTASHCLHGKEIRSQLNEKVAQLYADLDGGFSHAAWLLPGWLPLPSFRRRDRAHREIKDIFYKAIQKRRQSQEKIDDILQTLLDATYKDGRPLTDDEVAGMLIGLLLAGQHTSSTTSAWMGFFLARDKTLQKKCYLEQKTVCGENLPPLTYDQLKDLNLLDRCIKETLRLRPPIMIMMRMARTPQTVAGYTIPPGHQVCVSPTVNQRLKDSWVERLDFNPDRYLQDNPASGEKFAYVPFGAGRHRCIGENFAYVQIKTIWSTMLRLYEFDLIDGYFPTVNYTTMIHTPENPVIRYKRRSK
Put plainly: CYP51 reconstitution assay, HsCYP51. Type of test: biochemical. As to conditions: for IC50: 0.3 µM HsCYP51, 50 µM lanosterol. As for the experimental part: Azole antifungal agents were added in 5 µL DMSO followed by incubation for 5 minutes at 37°C prior to assay initiation with 4 mM β-NADPHNa4, with shaking for a further 10 minutes at 37°C. Sterol metabolites were recovered by extraction with ethyl acetate followed by derivatization with N,O-bis(trimethylsilyl)trifluoroacetamide and […] prior to analysis by gas chromatography mass spectrometry.

Test [3] addresses T3, Homo sapiens CYP51 (HsCYP51) (Homo sapiens, UniProt Q16850).
T3 construct: made in house; host or cells: E. coli
T3 sequence (Q16850 1-509): T2 sequence (Q16850 1-509)
In words: Azole binding to HsCYP51 (type II difference spectra titration). As to conditions: for Kd: 5 µM HsCYP51, Morrison equation. As for the experimental part: as §1

Test [4] concerns the target T3, Homo sapiens CYP51 (HsCYP51). Also noted: method as in PMID 20149798. As to conditions: ref [40]; read-out: Kd with HsCYP51, previously reported; cited from earlier work.

Molecules are shown by their SMILES. Read-outs that look alike come from different tables or passages of the source.

T1 sequence (P10613 whole entry): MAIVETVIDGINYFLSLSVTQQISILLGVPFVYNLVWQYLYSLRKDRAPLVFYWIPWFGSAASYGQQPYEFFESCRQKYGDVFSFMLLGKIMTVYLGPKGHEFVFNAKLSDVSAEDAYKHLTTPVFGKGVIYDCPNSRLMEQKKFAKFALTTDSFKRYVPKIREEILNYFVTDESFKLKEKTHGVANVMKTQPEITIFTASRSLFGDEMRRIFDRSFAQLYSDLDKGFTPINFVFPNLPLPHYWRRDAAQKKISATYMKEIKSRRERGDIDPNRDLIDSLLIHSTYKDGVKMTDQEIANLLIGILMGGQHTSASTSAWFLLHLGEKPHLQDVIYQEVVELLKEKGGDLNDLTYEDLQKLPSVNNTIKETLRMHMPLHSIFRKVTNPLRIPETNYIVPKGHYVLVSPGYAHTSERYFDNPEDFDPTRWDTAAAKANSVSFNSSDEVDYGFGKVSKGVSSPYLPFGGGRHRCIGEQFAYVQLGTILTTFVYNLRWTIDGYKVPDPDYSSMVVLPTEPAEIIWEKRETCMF

Broadly, the Kd is the free concentration of one partner at which half of the binding sites on the other are occupied at equilibrium, for simple one-to-one binding. By IC50 is commonly meant the point on the concentration scale where inhibition reaches its midpoint. Lower therefore signals greater potency. A word on the remaining activity: it is the share of the control activity or signal that is left under treatment. The low end stands for little activity left, the high end for much activity left. As for `CC(=O)N1CCN(c2ccc(NCC3COC(Cn4ccnc4)(c4ccc(Cl)cc4Cl)O3)cc2)CC1` (centres unmarked) [ketaminazole (16), ketaminazole], the Kd amounted to 43 ± 5 nM in test [1] (5 µM CaCYP51, Morrison equation, read-out: Kd with CaCYP51) and 731 ± 69 nM in test [3]. Also, the values for the IC50 in test [1] (in vitro) and in test [2] were 43 nM and approximately 16000 nM, respectively. Further, in test [2] (HsCYP51, at 155 µM compound), the remaining activity at 155 µM was approximately 30%. In addition, the “fold higher IC50 over ketoconazole with HsCYP51” value in test [2] (ratio of IC50 values) was found to be 3 fold. For the same compound, in test [3] (yeast vs human CYP51), the “selectivity for yeast CYP51 relative to human CYP51” value amounted to 17 fold.

As to `CC(=O)N1CCN(c2ccc(OCC3COC(Cn4ccnc4)(c4ccc(Cl)cc4Cl)O3)cc2)CC1` (centres unmarked) [ketoconazole, reference compound], the Kd was 27 ± 5 nM in test [1], approximately 180 nM in test [4] and 42 ± 16 nM in test [3]. Moreover, the “fold difference in binding to CaCYP51 compared to ketaminazole (16)” value in test [1] (ratio of Kd values) came to 1.6 fold. This compound had an IC50 in test [2] of approximately 5000 nM. Also, the “HsCYP51 activity, in words” value in test [2] (at 95 µM compound) is given as “inactivated”. Besides, the “fold tighter binding to HsCYP51 compared to ketaminazole (16)” value in test [3] (ratio of Kd values) is 17 fold.
